According to the supplement of paper PMC10307832:

Experiments:
Assay in all cases: relative viability (nuclei count vs DMSO), 5 days (fraction); higher = more cells survive
Erlotinib + Phenformin = compound: C#Cc1cccc(Nc2ncnc3cc(OCCOC)c(OCCOC)cc23)c1 [Erlotinib] + N=C(N)NC(=N)NCCc1ccccc1 [Phenformin] (partner 250 µM)
Procedure, shortened: (§1)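 A single step with final 0.05% Triton X-100, 1% formaldehyde and 1 ug/ml Hoechst fixed the cells and stained nuclei 5 days after treatment. Lung cancer cell lines in 1536-well plates had been treated by pin tool the day after seeding with one drug alone or a fixed anchor-drug dose plus five library-drug doses (not always all listed) in √10 steps, and nuclei were counted on 4× images. Relative viability is the ratio of nuclei in treated wells to nuclei in vehicle wells, taken as the median of duplicate plates.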

AT9283 + Navitoclax = compound: O=C(Nc1c[nH]nc1-c1nc2ccc(CN3CCOCC3)cc2[nH]1)NC1CC1 [AT9283] + CC1(C)CCC(c2ccc(Cl)cc2)=C(CN2CCN(c3ccc(C(=O)NS(=O)(=O)c4ccc(N[C@H](CCN5CCOCC5)CSc5ccccc5)c(S(=O)(=O)C(F)(F)F)c4)cc3)CC2)C1 [Navitoclax] (partner 0.5 µM)
Procedure, shortened: as §1

AT9283 + Crizotinib = compound: O=C(Nc1c[nH]nc1-c1nc2ccc(CN3CCOCC3)cc2[nH]1)NC1CC1 [AT9283] + C[C@@H](Oc1cc(-c2cnn(C3CCNCC3)c2)cnc1N)c1c(Cl)ccc(F)c1Cl [Crizotinib] (partner 1 µM)
Procedure, shortened: as §1

Erlotinib + Vorinostat = compound: C#Cc1cccc(Nc2ncnc3cc(OCCOC)c(OCCOC)cc23)c1 [Erlotinib] + O=C(CCCCCCC(=O)Nc1ccccc1)NO [Vorinostat] (partner 1 µM)
Procedure, shortened: as §1

AT9283 + Phenformin = compound: O=C(Nc1c[nH]nc1-c1nc2ccc(CN3CCOCC3)cc2[nH]1)NC1CC1 [AT9283] + N=C(N)NC(=N)NCCc1ccccc1 [Phenformin] (partner 250 µM)
Procedure, shortened: as §1

Cell Line | relative viability (Erlotinib + Phenformin; first compound 0.02 µM) | relative viability (Erlotinib + Phenformin; first compound 0.2 µM) | relative viability (Erlotinib + Phenformin; first compound 0.6325 µM) | relative viability (Erlotinib + Phenformin; first compound 2 µM) | relative viability (AT9283 + Navitoclax; first compound 0.003 µM) | relative viability (AT9283 + Navitoclax; first compound 0.03 µM) | relative viability (AT9283 + Navitoclax; first compound 0.09487 µM) | relative viability (AT9283 + Navitoclax; first compound 0.3 µM) | relative viability (AT9283 + Crizotinib; first compound 0.003 µM) | relative viability (AT9283 + Crizotinib; first compound 0.03 µM) | relative viability (AT9283 + Crizotinib; first compound 0.09487 µM) | relative viability (AT9283 + Crizotinib; first compound 0.3 µM) | relative viability (Erlotinib + Vorinostat; first compound 0.02 µM) | relative viability (Erlotinib + Vorinostat; first compound 0.2 µM) | relative viability (Erlotinib + Vorinostat; first compound 0.6325 µM) | relative viability (Erlotinib + Vorinostat; first compound 2 µM) | relative viability (AT9283 + Phenformin; first compound 0.003 µM) | relative viability (AT9283 + Phenformin; first compound 0.03 µM) | relative viability (AT9283 + Phenformin; first compound 0.09487 µM) | relative viability (AT9283 + Phenformin; first compound 0.3 µM)
NCI-H1993 | 0.564 | 0.59 | 0.573 | 0.549 | 0.872 | 0.905 | 0.586 | 0.466 | 0.915 | 0.654 | 0.572 | 0.543 | 0.811 | 0.724 | 0.633 | 0.461 | 0.474 | 0.496 | 0.431 | 0.408
NCI-H2347 | 0.511 |  | 0.326 | 0.326 | 0.93 | 0.764 | 0.368 | 0.267 | 0.717 | 0.78 | 0.446 | 0.363 | 0.628 | 0.717 | 0.625 | 0.552 | 0.413 | 0.464 | 0.347 | 0.363
NCI-H1734 | 0.4 | 0.378 | 0.391 | 0.359 | 0.839 | 0.318 | 0.131 | 0.127 | 0.725 | 0.335 | 0.246 | 0.216 | 0.954 |  | 0.938 | 0.81 | 0.334 | 0.278 | 0.243 | 0.203
HCC-44 | 0.239 | 0.162 | 0.22 | 0.165 | 0.897 | 0.787 | 0.823 | 0.257 | 0.775 | 0.634 | 0.457 | 0.211 | 1.21 | 1.13 | 1.13 | 1.16 | 0.124 | 0.169 | 0.106 | 0.0704
LCLC-97TM1 | 0.405 | 0.412 | 0.439 | 0.379 | 0.335 | 0.117 | 0.107 | 0.144 | 0.273 | 0.157 | 0.128 | 0.121 |  | 0.503 | 1.01 | 0.596 | 0.445 | 0.282 | 0.152 | 0.137
HOP-62 | 0.726 |  | 0.711 | 0.689 | 1.07 | 0.857 | 0.088 | 0.106 | 1.13 | 0.747 | 0.285 | 0.167 | 0.714 | 0.492 | 0.759 | 0.716 | 0.694 | 0.572 | 0.418 | 0.25
NCI-H2405 | 0.449 | 0.347 | 0.401 | 0.404 | 1.05 | 0.31 | 0.127 | 0.0943 | 0.826 | 0.634 | 0.272 | 0.217 | 1.27 | 1.1 | 1.1 | 0.917 | 0.415 | 0.362 | 0.28 | 0.251
HCC-78 | 0.657 | 0.681 | 0.684 | 0.531 | 0.721 | 0.511 | 0.169 | 0.145 | 0.328 | 0.272 | 0.213 | 0.189 | 0.428 | 0.437 | 0.36 | 0.335 | 0.611 | 0.511 | 0.333 | 0.26
